The values that follow are results of earlier work, collected in patent US11077099B2, “Oral tablet formulation of lenalidomide” (SAMYANG HOLDINGS CORPORATION, priority 2016, dated 2021).

For this data set, the system named is multiple myeloma. The conditions noted are these: combination of lenalidomide and dexamethasone; patients with relapses or refractory disease.

SMILES strings stand for the structures.

For `Nc1cccc2c1CN(C1CCC(=O)NC1=O)C2=O` (centres unmarked) [lenalidomide], the disease-free survival time is 13.4 months and the overall survival is reported as 38 months.
